How the values were obtained:
Conditions in all cases: Compound concentration 1.0 uM
[1] = target: T1, Serine/threonine-protein kinase D2 (Homo sapiens) (UniProt Q9BZL6); experiment: PKD2(h) Eurofins kinase panel
T1 sequence (whole entry): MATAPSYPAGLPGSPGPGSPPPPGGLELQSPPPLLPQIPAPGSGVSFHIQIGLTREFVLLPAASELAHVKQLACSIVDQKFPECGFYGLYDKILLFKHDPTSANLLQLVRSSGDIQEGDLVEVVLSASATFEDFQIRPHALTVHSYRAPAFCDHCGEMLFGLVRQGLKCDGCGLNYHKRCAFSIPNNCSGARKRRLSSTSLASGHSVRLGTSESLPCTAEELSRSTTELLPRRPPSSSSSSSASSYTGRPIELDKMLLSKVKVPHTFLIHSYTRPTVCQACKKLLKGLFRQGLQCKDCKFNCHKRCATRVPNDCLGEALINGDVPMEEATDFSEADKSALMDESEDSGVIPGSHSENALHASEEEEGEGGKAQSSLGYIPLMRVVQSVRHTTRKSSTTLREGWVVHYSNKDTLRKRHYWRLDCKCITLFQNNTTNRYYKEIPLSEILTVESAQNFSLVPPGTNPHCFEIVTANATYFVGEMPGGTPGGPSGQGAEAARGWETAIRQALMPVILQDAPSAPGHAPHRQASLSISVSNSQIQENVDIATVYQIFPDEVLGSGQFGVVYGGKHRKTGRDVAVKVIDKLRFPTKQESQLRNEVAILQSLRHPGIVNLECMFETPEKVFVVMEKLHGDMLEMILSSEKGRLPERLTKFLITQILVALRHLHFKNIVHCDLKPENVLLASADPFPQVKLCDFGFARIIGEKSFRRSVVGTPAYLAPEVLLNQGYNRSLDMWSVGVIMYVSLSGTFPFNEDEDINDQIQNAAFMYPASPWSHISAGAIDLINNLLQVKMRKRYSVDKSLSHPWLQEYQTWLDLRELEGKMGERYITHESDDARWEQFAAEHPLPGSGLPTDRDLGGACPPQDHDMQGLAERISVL

[2] = target: T2, Dual specificity tyrosine-phosphorylation-regulated kinase 2 (Homo sapiens) (UniProt Q92630); experiment: DYRK2(h) Eurofins kinase panel
T2 sequence (whole entry): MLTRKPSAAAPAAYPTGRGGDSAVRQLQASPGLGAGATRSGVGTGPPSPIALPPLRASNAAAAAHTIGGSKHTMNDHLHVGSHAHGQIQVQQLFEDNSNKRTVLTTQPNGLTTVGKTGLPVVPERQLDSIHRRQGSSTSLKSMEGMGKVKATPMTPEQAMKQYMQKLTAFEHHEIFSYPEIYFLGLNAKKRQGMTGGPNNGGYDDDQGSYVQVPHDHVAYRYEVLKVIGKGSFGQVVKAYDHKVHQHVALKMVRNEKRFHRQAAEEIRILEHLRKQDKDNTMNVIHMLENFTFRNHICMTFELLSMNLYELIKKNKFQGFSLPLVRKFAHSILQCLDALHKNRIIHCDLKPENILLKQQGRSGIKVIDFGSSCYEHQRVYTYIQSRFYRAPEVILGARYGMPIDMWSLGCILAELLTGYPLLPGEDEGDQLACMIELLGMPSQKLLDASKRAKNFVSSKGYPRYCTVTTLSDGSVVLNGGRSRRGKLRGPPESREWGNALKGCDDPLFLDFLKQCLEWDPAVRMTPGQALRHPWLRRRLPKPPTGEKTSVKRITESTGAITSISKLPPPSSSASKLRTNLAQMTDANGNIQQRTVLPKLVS

[3] = target: Serine/threonine-protein kinase pim-3 (Homo sapiens) (UniProt Q86V86); experiment: Pim-3(h) Eurofins kinase panel
[4] = target: Tyrosine-protein kinase HCK (Homo sapiens) (UniProt P08631); experiment: Hck(h) activated Eurofins kinase panel
[5] = target: Casein kinase II subunit alpha' (Homo sapiens) (UniProt P19784); experiment: CK2alpha2(h) Eurofins kinase panel
[6] = target: T3, Tyrosine-protein kinase Mer (Homo sapiens) (UniProt Q12866); experiment: Mer(h) Eurofins kinase panel
T3 sequence (whole entry): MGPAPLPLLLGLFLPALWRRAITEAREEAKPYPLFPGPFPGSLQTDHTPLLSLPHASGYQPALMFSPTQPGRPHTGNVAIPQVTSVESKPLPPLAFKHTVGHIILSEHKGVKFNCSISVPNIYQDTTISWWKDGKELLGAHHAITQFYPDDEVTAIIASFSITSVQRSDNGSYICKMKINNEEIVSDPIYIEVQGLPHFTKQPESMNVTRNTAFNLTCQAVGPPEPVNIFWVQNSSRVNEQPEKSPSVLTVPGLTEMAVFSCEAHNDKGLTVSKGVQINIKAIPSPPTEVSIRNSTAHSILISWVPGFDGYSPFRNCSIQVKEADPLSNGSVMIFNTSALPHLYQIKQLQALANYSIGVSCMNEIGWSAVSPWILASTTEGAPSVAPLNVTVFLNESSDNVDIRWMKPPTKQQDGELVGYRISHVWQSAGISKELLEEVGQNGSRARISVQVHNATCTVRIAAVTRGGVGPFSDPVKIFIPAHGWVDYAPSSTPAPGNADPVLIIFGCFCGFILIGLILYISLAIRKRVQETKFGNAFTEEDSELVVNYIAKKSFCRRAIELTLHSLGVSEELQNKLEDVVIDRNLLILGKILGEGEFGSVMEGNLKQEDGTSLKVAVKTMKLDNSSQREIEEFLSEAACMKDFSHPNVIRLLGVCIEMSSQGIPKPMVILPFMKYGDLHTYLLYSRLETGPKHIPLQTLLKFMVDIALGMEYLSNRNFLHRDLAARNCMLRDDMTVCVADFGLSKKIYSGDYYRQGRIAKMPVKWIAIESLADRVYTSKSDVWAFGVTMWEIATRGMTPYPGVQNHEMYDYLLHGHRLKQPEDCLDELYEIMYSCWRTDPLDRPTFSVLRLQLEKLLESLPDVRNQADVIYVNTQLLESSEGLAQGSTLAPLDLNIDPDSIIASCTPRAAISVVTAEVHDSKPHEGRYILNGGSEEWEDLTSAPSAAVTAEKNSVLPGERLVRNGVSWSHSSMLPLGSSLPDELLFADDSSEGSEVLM

[7] = target: Focal adhesion kinase 1 (Homo sapiens) (UniProt Q05397); experiment: FAK(h) Eurofins kinase panel

Measured: % residual kinase activity

Sequence of Casein kinase II subunit alpha' (Homo sapiens) (P19784 whole entry, looked up): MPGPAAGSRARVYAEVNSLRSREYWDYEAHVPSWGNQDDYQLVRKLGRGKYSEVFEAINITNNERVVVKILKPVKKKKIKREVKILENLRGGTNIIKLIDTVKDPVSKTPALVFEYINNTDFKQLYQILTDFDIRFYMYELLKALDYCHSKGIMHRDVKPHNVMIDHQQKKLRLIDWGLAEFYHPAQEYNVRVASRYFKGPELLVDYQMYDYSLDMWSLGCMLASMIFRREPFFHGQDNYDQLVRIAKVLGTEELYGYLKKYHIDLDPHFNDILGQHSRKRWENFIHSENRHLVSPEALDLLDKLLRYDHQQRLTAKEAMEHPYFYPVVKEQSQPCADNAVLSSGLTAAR
Sequence of Focal adhesion kinase 1 (Homo sapiens) (Q05397 2-1052 limits assumed): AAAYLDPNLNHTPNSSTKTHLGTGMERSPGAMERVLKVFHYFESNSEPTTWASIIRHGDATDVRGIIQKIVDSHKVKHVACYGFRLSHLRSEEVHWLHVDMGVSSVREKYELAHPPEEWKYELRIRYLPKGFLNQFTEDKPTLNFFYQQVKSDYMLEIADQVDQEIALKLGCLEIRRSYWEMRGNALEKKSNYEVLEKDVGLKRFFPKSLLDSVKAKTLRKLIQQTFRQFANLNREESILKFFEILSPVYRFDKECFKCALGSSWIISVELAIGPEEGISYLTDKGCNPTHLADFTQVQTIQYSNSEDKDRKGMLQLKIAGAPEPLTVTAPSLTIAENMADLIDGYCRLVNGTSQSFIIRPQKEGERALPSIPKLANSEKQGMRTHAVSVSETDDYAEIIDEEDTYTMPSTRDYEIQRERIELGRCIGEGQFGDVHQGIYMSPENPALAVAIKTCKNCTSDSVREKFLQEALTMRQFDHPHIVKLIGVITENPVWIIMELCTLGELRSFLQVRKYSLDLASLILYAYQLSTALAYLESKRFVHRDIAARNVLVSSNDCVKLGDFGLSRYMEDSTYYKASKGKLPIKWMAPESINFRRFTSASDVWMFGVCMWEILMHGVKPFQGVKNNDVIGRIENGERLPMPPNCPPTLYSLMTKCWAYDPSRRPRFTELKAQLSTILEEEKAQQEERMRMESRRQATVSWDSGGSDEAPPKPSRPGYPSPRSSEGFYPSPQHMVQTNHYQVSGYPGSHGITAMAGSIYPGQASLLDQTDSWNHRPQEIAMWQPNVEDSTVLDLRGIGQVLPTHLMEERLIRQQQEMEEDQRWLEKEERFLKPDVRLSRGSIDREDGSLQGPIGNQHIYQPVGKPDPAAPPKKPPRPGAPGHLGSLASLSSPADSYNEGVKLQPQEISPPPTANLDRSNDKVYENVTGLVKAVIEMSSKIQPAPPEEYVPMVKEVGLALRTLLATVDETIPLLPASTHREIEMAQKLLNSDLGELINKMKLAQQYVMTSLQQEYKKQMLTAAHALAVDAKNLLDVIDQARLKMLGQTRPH
Sequence of Tyrosine-protein kinase HCK (Homo sapiens) (P08631 2-526 limits assumed): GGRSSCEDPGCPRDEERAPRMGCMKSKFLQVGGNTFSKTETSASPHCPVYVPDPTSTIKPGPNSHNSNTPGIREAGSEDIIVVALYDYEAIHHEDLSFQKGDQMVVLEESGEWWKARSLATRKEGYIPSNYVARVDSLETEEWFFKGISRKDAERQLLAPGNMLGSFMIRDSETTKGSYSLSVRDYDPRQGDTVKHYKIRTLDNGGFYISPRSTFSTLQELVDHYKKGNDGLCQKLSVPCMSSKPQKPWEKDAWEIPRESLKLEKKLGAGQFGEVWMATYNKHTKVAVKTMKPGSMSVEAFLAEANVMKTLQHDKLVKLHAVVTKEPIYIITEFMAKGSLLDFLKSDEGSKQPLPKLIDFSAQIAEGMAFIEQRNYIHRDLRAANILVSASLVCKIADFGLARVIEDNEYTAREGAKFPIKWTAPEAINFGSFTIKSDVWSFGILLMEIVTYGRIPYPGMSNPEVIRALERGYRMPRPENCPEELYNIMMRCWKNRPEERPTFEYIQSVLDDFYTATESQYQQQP

CCc1ccccc1C(=O)Nc1n[nH]c2c(C)c(F)c(C3C(C#N)=C(C)N(C)C(C)=C3C#N)cc12 [BAY-3827]
inactive: [1] 98% | [2] 100% | [3] 108% | [4] 109% | [5] 109% | [6] 96% | [7] 84%

Source: ChEMBL document CHEMBL4507319 (2021)
